From publication PMC8400033, “A Multicomponent Protocol for the Synthesis of Highly Functionalized γ-Lactam Derivatives and Their Applications as Antiproliferative Agents” (Pharmaceuticals, 2021)

Columns and labels:
[1] = system: A549 (carcinomic human alveolar basal epithelial cell); assay: CCK-8 antiproliferative assay, A549 cell line; type: cell-based; details: Homo sapiens, A549, A549 cell line, CCK-8; read-out: IC50 A549
Experimental: (§2) In vitro cytotoxicity of the γ-lactam derivatives was evaluated by testing their antiproliferative activities against several human cancer cell lines. Cell counting kit (CCK-8) assay was used for the evaluation of growth inhibition.
(§3) All stock solutions of the investigated compounds were prepared by dissolving the powdered materials in appropriate amounts of DMSO. The final concentration of DMSO never exceeded 5% (v/v) in reactions. The stock solution was stored at 5 °C until it was used.
(§4) All were supplemented with 10% of fetal bovine serum (FBS) (Sigma-Aldrich, Madrid, Spain) and with 1% of NORMOCIN solution (Thermo Fisher, Waltham, Massachusetts, MA, USA). […] For cytotoxicity experiments, A549 cells were seeded in 96-well plates at a density of 2.5–3 × 10^3 cells per well and incubated overnight to achieve 70% of confluence at the time of exposition to the cytotoxic compound.
(§5) Both were supplemented with 10% of fetal bovine serum (FBS) (Sigma-Aldrich, Spain) and with 1% of NORMOCIN solution (Thermo Fisher, Waltham, Massachusetts, MA, USA). […] For cytotoxicity experiments, A549 cells were seeded in 96-well plates at a density of 2.5–3 × 10^3 cells per well and incubated overnight to achieve 70% of confluence at the time of exposition to the cytotoxic compound.

[2] = system: RKO (human colon epithelial carcinoma); assay: CCK-8 antiproliferative assay, RKO cell line; type: cell-based
Experimental: as §2, §3, §4

[3] = system: MRC5 non-malignant lung fibroblasts; assay: CCK-8 assay on non-malignant cells for selective toxicity; type: cell-based; details: Homo sapiens; MRC5 non-malignant lung fibroblasts, CCK-8; read-out: IC50 MRC5
Experimental: as §2, §3, §4, §5

[4] = system: HEK293 (human embryonic kidney); assay: CCK-8 antiproliferative assay, HEK293 cell line; type: cell-based
Text: (§1) In a preliminary study, we tested the cytotoxicity of γ-lactam 4b as lead compound against seven human cancer cell lines: HEK293 (human embryonic kidney), MCF7 (human breast adenocarcinoma), HTB81 (human prostate carcinoma), HeLa (human epithelioid cervix carcinoma), RKO (human colon epithelial carcinoma), SKOV3 (human ovarian carcinoma) and A549 (carcinomic human alveolar basal epithelial cell). The cell proliferation inhibitory activity of γ-lactam 4b is shown as IC50 values (Figure 2).

[5] = system: MCF7 (human breast adenocarcinoma); assay: CCK-8 antiproliferative assay, MCF7 cell line; type: cell-based
Text: as §1

[6] = system: HTB81 (human prostate carcinoma); assay: CCK-8 antiproliferative assay, HTB81 cell line; type: cell-based
Text: as §1

[7] = system: HeLa (human epithelioid cervix carcinoma); assay: CCK-8 antiproliferative assay, HeLa cell line; type: cell-based
Text: as §1

A549 cells [8] = assay: Flow cytometry apoptosis/necrosis assay (Annexin V FITC / propidium iodide); type: cell-based, human; details: A549, 5 µM; for Percentage of late-apoptotic and necrotic cells: FL-1 and FL-3 positive; for Percentage of early-apoptotic cells: FL-1 positive, FL-3 negative
Experimental: In addition, flow cytometry assays were performed using compound 4b in A549 cells at 12, 24, and 48 h post-exposure. Early apoptotic cells were FL-1 positive and FL-3 negative, meaning that they had initialized the apoptotic process but were still alive at the time of the measurement. Percentages of these early-apoptotic cells after 12, 24, and 48 h. were, respectively, 31.17 ± 2.04%, 34.97 ± 3.62% and 40.13 ± 0.81%. On the other hand, late apoptotic and necrotic cells were both FL-1 and FL-3 positive, meaning that they activated the apoptotic machinery and were dead at the time of the measurement. Percentages of late-apoptotic and necrotic cells after 12, 24 and 48 h were, respectively, 33.03 ± 1.43%, 37.60 ± 3.37% and 36.90 ± 0.70% (Figure 4). Control live cells were all FL-1 and FL-3 negative, while around 95% of control necrotic cells were FL-3 positive, FL-1 negative (See ESI). […] In fact, among all the dead cells detected, which were FL-1 positive, almost all were simultaneously positive for the FL-3 channel too, while only a small percentage (2% or lower) of dead cells were exclusively FL-1 positive. Therefore, the majority of dead cells detected in this study were apoptotic cells. In addition, the total percentages of […], which comprised early and late apoptotic cells, were over 60%, and the percentage increased over time.
Flow cytometry assays were conducted using a FACSCalibur system flow cytometer (Becton Dickinson Bioscience, Franklin Lakes, NJ, USA), to identify apoptotic cells and to differentiate them from necrotic cells. A549 cells were exposed to 5 µM of the cytotoxic compound 4b and cell apoptosis and necrosis were evaluated 12, 24, and 48 h after exposure. For that purpose, treated cells were washed with phosphate-buffered saline (PBS) (Sigma-Aldrich, Spain) and detached with trypsin/EDTA (0.25%) (Gibco, New York, NY, USA). Cells were centrifuged at 1100 rpm for 5 min, and then the resulting pellet was resuspended in cell growth media and transferred to specific flow cytometer tubes. Propidium iodide (Sigma-Aldrich, Spain) at 1:300 dilution was used in each sample to detect necrotic cells and eBioscience™ Annexin V Apoptosis Detection Kit FITC (Fisher Scientific, Spain) was used to detect apoptotic cells following the manufacturer’s instructions. The fluorescent signals corresponding to necrotic cells and apoptotic cells were measured at 650 nm (FL3) and 525 nm (FL1), respectively. […] Cells treated with 1 µM of camptothecin (Sigma-Aldrich, Spain) served as a positive control for apoptosis and were used to establish cytometer settings and channel compensations. The experiments were carried out in triplicate for each condition. For each sample, 10,000 events were collected.

A549 cells [9] = assay: Visualization of cell growth and morphology; type: cell-based, human
Experimental: Next, cell morphology analysis and flow cytometry assays were performed, to elucidate the mechanism of the antiproliferative activity of γ-lactam substrates. Cell morphology was analyzed at different time points after the addition of compound 4b to visualize the cellular modifications as a result of the treatment.
Qualitative analysis of A549 cell growth and morphology after exposure to 1 µM and 5 µM of the cytotoxic compound 4b was conducted using Cytation^TM 1 Cell Imaging Multi-Mode Reader (Biotek, Winooski, VT, USA). Cell images were acquired immediately after the addition of the compound and at the following time-points after exposure: 0.5, 1, 1.5, 2, 3, 4, 8, 12, 16, 24, and 48 h.

[10] = system: SKOV3 (human ovarian carcinoma); assay: CCK-8 antiproliferative assay, SKOV3 cell line; details: Homo sapiens, SK-OV-3, read-out: IC50 SKOV3, SKOV3 cell line, CCK-8
Experimental: as §2, §3, §4

`Cc1ccc(NC2=CC(c3ccccc3)N(c3ccc(C)cc3)C2=O)cc1` (stereo not drawn) [4b] showed an IC50 [1] of 2.34 ± 0.28 µM, an IC50 [2] of 22.1 ± 2.98 µM and an IC50 [3] greater than 50 µM. The “Growth inhibition activity against HEK293, in words” value [4] was “no grown inhibition activity”, the IC50 ([4]; Homo sapiens, HEK293, Figure 2) was greater than 50 µM and the “Growth inhibition activity against MCF7, in words” value [5] was “no grown inhibition activity”. For the same compound, the IC50 ([5]; Homo sapiens, MCF7, Figure 2) was greater than 50 µM, the IC50 [6] was 27.9 µM and the IC50 [7] was 30.2 µM. The “Percentage of dead cells exclusively FL-1 positive” value (A549 cells [8]; 12-48 h) was no more than 2%, the “Total percentage of FL-3 positive cells (early and late apoptotic cells)” value (A549 cells [8]; 12-48 h, increased over time) was “over 60%” and the “Percentage of late-apoptotic and necrotic cells” value (A549 cells [8]; 12 h post-exposure) was 33.03 ± 1.43%. For the same compound, the “Percentage of early-apoptotic cells” value (A549 cells [8]; 12 h post-exposure) was 31.17 ± 2.04%, the “Percentage of late-apoptotic and necrotic cells” value (A549 cells [8]; 24 h post-exposure) was 37.60 ± 3.37% and the “Percentage of early-apoptotic cells” value (A549 cells [8]; 24 h post-exposure) was 34.97 ± 3.62%. The “Percentage of late-apoptotic and necrotic cells” value (A549 cells [8]; 48 h post-exposure) was 36.90 ± 0.70%, the “Percentage of early-apoptotic cells” value (A549 cells [8]; 48 h post-exposure) was 40.13 ± 0.81% and the “Cell morphology and growth” value (A549 cells [9]; 1 µM, 0-48 h) was “healthy, uniform morphology”. For the same compound, the “Cell morphology and growth” value (A549 cells [9]; 5 µM, especially after 6 h of exposure) was “alterations of the cellular morphology”, the Cell morphology (A549 cells [9]; higher concentrations (10 and 15 µM, 24 h)) was “high cytotoxicity” and the IC50 [10] was 9.62 ± 1.18 µM.
